# Laboratory results from paper PMC7679134, “Probing the ionotropic activity of glutamate GluD2 receptor in HEK cells with genetically-engineered photopharmacology” (eLife, 2020).
# Substitutions are numbered along the chain they refer to.
# Tests used:
# Format in all cases: cell-based
# GluD2 [1] = molecular target: T1, GluD2 (Mus musculus, UniProt Q61625, A654T/I677C); assay: whole-cell patch-clamp dose-response ([…]) under […] nm light; […] under […] nm
# T1 construct: gene Grid2; pcDNA3-GluD2 expressed in HEK tsA201 cells, conjugated with MAGu
# T1 sequence (Q61625 24-1007 A654T/I677C): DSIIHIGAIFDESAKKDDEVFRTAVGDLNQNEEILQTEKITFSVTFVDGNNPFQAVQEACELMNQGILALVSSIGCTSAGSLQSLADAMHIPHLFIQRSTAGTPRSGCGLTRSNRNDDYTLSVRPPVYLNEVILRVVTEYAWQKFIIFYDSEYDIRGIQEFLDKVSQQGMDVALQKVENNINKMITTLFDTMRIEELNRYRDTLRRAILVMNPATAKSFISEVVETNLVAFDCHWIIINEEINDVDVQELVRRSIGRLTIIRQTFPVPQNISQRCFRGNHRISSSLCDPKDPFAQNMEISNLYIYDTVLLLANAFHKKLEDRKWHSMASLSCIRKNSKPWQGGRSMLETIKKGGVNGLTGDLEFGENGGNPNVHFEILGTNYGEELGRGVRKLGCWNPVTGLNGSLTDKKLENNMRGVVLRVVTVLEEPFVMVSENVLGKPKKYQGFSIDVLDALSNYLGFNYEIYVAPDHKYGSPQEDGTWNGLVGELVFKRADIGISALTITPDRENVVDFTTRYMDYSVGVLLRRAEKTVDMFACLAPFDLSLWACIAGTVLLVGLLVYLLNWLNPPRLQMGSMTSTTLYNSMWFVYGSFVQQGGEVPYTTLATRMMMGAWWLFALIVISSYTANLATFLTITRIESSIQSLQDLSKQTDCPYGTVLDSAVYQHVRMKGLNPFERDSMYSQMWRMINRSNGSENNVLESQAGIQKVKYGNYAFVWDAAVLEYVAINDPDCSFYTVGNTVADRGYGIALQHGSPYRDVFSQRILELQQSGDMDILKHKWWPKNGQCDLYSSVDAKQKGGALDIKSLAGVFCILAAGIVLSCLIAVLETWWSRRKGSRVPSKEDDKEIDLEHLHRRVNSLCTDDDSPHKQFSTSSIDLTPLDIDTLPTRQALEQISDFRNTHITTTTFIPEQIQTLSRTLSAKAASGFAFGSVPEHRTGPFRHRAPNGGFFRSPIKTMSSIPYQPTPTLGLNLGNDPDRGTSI
# GluD2 [2] = molecular target: T2, GluD2 (Mus musculus, UniProt Q61625, A654T/Q666C); assay: whole-cell patch-clamp photoswitching after covalent labeling
# T2 construct: gene Grid2; pcDNA3-GluD2 expressed in HEK tsA201 cells
# T2 sequence (Q61625 24-1007 A654T/Q666C): T1 sequence (Q61625 24-1007 A654T/I677C) with Q643C, C654I
# GluD2 [3] = molecular target: T3, GluD2 (Mus musculus, UniProt Q61625, I677C); assay: patch-clamp of DHPG-induced current under […] vs […] nm light; WT control insensitive
# T3 construct: gene Grid2; non-Lurcher GluD2 (LiGluD2) co-expressed with mGlu1b in HEK tsA201 cells
# T3 sequence (Q61625 24-1007 I677C): T1 sequence (Q61625 24-1007 A654T/I677C) with T631A
# GluD2 [4] = molecular target: T4, GluD2 (Mus musculus, UniProt Q61625, A654T/D670C); assay: whole-cell patch-clamp photoswitching after covalent labeling
# T4 construct: gene Grid2; pcDNA3-GluD2 expressed in HEK tsA201 cells
# T4 sequence (Q61625 24-1007 A654T/D670C): T1 sequence (Q61625 24-1007 A654T/I677C) with D647C, C654I
# GluD2 [5] = molecular target: T5, GluD2 (Mus musculus, UniProt Q61625, A654T/Q674C); assay: as above
# T5 construct: gene Grid2; pcDNA3-GluD2 expressed in HEK tsA201 cells
# T5 sequence (Q61625 24-1007 A654T/Q674C): T1 sequence (Q61625 24-1007 A654T/I677C) with Q651C, C654I
SMILES,IC50 (GluD2 [1]) [µM],% photoswitching (relative to pentamidine block) (GluD2 [2]),% reduction of DHPG-induced current (535 vs 380 nm) (GluD2 [3]),% photoswitching (relative to pentamidine block) (GluD2 [4]),% photoswitching (relative to pentamidine block) (GluD2 [5])
N=C(N)c1ccc(OCCCCCOc2ccc(C(=N)N)cc2)cc1 [Pentamidine],5.1,–,–,–,–
N=C(N)NCC(=O)Nc1ccc(/N=N/c2ccc(NC(=O)CCN3C(=O)C=CC3=O)cc2)cc1 [MAGu],–,15.5 % photoswitching (relative to pentamidine block),22.8 % reduction of DHPG-induced current (535 vs 380 nm),14.6 % photoswitching (relative to pentamidine block),20.5 % photoswitching (relative to pentamidine block)
